{"source": "patent US12616712B2", "about": "(LONZA SALES AG, priority 2019, dated 2026)", "tested_on": "GL261-Luc glioblastoma multiforme", "assay": "syngeneic GL261-Luc glioblastoma multiforme model", "type": "in vivo", "details": "mice, control groups, FIG. 7A", "description": "The efficacy of exoSTING treatment in a syngeneic GL261-Luc glioblastoma multiforme model was assessed. Briefly, 5×10^5 GL261-LUC cells were administered via a 10 μl intra-striatal stereotactic injection to the mice. Tumor presence was confirmed by T1-weighted (T1W) MRI scan 15 days later. Four days after the MRI scan, when tumors were approximately 80-100 mm^3, stereotactic coordinates were used to administer 5 μl (˜120 ng) ExoSTING every 72 hours for 3 total injections to some of the animals. […] Anti-PDL-1 mAb was dosed twice weekly for 2 weeks (IOmpk IV). Phosphate buffered saline (PBS) alone and Temozolomide (TMZ) alone were dosed twice weekly for 2 weeks (30mpk IP). Mice were then followed for survival end-point."}
{"smiles": "Cn1nnc2c(C(N)=O)ncn2c1=O", "note": "[Temozolamide]", "values": [{"measurement": "survival: all animals succumbed to the tumor by day post tumor induction", "result": "~40", "unit": "days"}]}
